Measurements reported in patent US20040101828A1, “Method for analysis of the phenoptypic characteristics of the human immunodeficiency virus (HIV)” (priority 2000, published 2004).

Tests used:
[1] = test system: HIV viruses (NL-DIM, NL4.3, LAI-L91H); experiment: Validation of fusion inhibitor susceptibility method: resistant recombinant viruses versus reference viruses T5A1 and LAI; format: cell-based, HIV-1
Protocol: The recombinations that are obtained by using for the amplification of stage (b) the pair of primers FuA: 5′ […]3′ (SEQ ID No: 23) and FuB: 5′ […]3′ (SEQ ID No: 24) followed by a second amplification, carried out with the primer: FuC: 5′ […]3′ (SEQ ID No: 25) and a mixture of the following primers: FuD1: 5′ […]3′ (SEQ ID No: 26) and FuD2: 5′ […]3′ (SEQ ID No: 27) are very effective.
Actually, to obtain a satisfactory viral production, 10-50 ng of PCR product, used in the recombination stage, is generally adequate. In this method that is intended to analyze the phenotypic fusion characteristic, a viral production corresponding to 50-400 ng/ml of p24 is obtained after transfection. For the infection of target cells, between 0.5 and 5 ng of p24/well (96-well plates) is used. The increase of the optical density that is obtained after infection of target cells is linear if the infection is conducted under these conditions.
To validate the analytical method that relates to the susceptibility of HIV viruses to fusion inhibitors, two fusion inhibitors have been used: a peptide derived from the distal helix sequence in the gp41 of HIV (called DP178 or T20) and a derivative of betulinic acid (RPR103611). For each inhibitor, the reduction of sensitivity of one or more resistant viruses (previously identified by other authors) relative to two reference viruses: a primary plasmatic virus T5A1 and a virus adapted to in-vitro cultivation (LAI) was carried out. All the viruses were produced by recombination.
The increases of IC50 for a strongly resistant NL-DIM virus (described by Rimsky, L. T. et al. J. Virol. 1998, Vol. 72, pages 896-993) and for the NL4.3 virus (which is partially resistant) were measured regarding this inhibitor.
The increase of IC50 of the LA1-L91H resistant virus (Labrosse, B. et al. J. Virol. 2000 Vol 74, pages 2142-2150) regarding this inhibitor has been measured.

[2] = test system: HIV virus (recombinant virus carrying reverse transcriptase from patient plasma); experiment: Recombinant virus assay (RVA): susceptibility to reverse transcriptase inhibitors, recombinant viruses from patient samples; format: cell-based, HIV-1; settings: for resistance levels (in words): sample R5; for median Resistance Index (RI) relative to NL43: 22 tested viruses from patients with ordinary treatment, 3 RVA replicates
Protocol: (§1) The determination of the susceptibility of an HIV virus to a reverse transcriptase inhibitor is carried out in the following manner: 293 T cells are transfected with 7.5 μg of pSRT plasmid that is linearized by NruI, 0.1 μg of pVSV-G plasmid and 0.5 and 1 μg of the product that is obtained from the PCR reaction of the reverse transcription of HIV. The transfection precipitate is withdrawn from cells after 18 hours of incubation, and fresh growth medium is added. After 24 hours of cultivation, the supernatant is clarified by centrifuging (500 g, 15 minutes) and transferred to P4 indicating cells that were pre-incubated with serial dilutions of a reverse transcriptase inhibitor, in triplicate wells, for four hours. The range of inhibitor concentrations used varies according to the compounds. The signal that is produced by the activation of the marker gene was developed with CPRG for 48 hours as for the analysis of the susceptibility to a reverse transcriptase inhibitor, and index IC50 was calculated by using the median effect equation.
To determine if NL43 is a reference virus that is suitable for comparison with clinical isolates, a group of samples taken from patients with ordinary treatment was tested on 3 RVA replicates for their susceptibility to reverse transcriptase inhibitors.
The reproducibility of the method for determining the susceptibility of the recombinant virus (RVA) to reverse transcriptase inhibitors (RTI) was evaluated by a series of test on 5 samples, selected so as to represent a wide range of susceptibility profiles, between 4 and 8 tests per sample, by using RNA preparations and separate PCR reactions.

[3] = test system: P4 cells; format: cell-based
Source text: The inhibitor concentration ranges that are used are selected based on the cellular toxicity of each compound and the IC50/IC90, ratio for the susceptibility of the resistant isolates (Table 1). […] A range of four serial dilutions, beginning at […], was used for the abacavir, making it possible to detect up to 60× more resistance.

[4] = test system: Reference Virus NL4-3; experiment: Recombinant virus assay (RVA): susceptibility to reverse transcriptase inhibitors, reference virus; format: cell-based, HIV-1
Protocol: as §1
The pSRT plasmid that brings a deletion in the region that codes for pol extending from codon 24 of reverse transcriptase (base 2618) to codon 432 of reverse transcriptase (base 3872) includes all of the mutations combined with a resistance phenomenon that are known to date. […]

[5] = target: Envelope protein (gp41) of the NL4.3 reference virus (HIV-1); experiment: cell-based or functional assay
[6] = target: Envelope protein (gp41) of the strongly resistant NL-DIM virus (HIV-1); experiment: cell-based or functional assay
[7] = sample R1 (69N/T, 70R), 6 tests
[8] = sample R2 (41L, 62V, 67N, 69N, 75I, 77L, 115F, 116Y, 151M, 181C, 184V, 190A, 208Y, 215F, 219Q), 6 tests
[9] = sample R3 (184V, 215F), 6 tests
[10] = sample R4 (41L, 67N, 69D, 184V, 190A, H208Y, 210W, 215Y), 5 tests
[11] = sample R5 (215Y, 41L, 74V, 100I, 103N), 5 tests

| Molecule | Resistance Index, geometric mean (IC50 in the sample relative to NL43) [2, 7] | Resistance Index, geometric mean (IC50 in the sample relative to NL43) [2, 8] | Resistance Index, geometric mean (IC50 in the sample relative to NL43) [2, 9] | Resistance Index, geometric mean (IC50 in the sample relative to NL43) [2, 10] | Resistance Index, geometric mean (IC50 in the sample relative to NL43) [2, 11] | other results |
| --- | --- | --- | --- | --- | --- | --- |
| C=C(C)[C@@H]1CC[C@]2(C(=O)NCCCCCCCC(=O)N[C@@H](CC(C)C)[C@@H](O)CC(=O)O)CC[C@]3(C)[C@H](CC[C@@H]4[C@@]5(C)CC[C@H](O)C(C)(C)[C@@H]5CC[C@]43C)[C@@H]12 [RPR103611] | – | – | – | – | – | increase of IC50 ([1]; LAT-L91H resistant virus relative to LAI and to T5A1): greater than 100 × |
| enfuvirtide | – | – | – | – | – | increase of IC50 ([1]; partially resistant NL4.3 virus relative to 15A1): 10 ×; increase of IC50 ([1]; partially resistant NL4.3 virus relative to LAI): 12.5 ×; increase of the value of IC50 ([1]; strongly resistant DIM virus relative to LAI): more than 100 ×; increase of the value of IC50 ([1]; strongly resistant DIM virus relative to T5A1): 80 × |
| Cc1ccnc2c1NC(=O)c1cccnc1N2C1CC1 [Nevirapine] | – | – | – | – | – | resistance index ([2]; one virus carrying a mutation on codon 98 (A for S) of reverse transcriptase): 11.0; resistance levels (in words) [2]: high resistance levels |
| Nc1nc(NC2CC2)c2ncn([C@H]3C=C[C@@H](CO)C3)c2n1 [Abacavir] | 1.1 | > | 4.3 | 6.1 | 1.7 | index IC50 for the P4 cells (cellular toxicity) [3]: about 250 μM; IC50 index for the native stock of the virus [4]: about 3 μM |
| T20 fusion inhibitor, a peptide derived from the distal helix sequence in the gp41 of HIV (from UniProt P03377 643-678) | – | – | – | – | – | increase of IC50 relative to LAI [5]: 12.5 fold; increase of IC50 relative to T5A1 (printed 15A1) [5]: 10 fold; increase of the value of IC50 relative to LAI [6]: > 100 fold; increase of the value of IC50 relative to T5A1 [6]: 80 fold |
| Nc1ccn([C@@H]2CS[C@H](CO)O2)c(=O)n1 [3TC, lamivudine] | 1.3 | >f | > | > | 1.8 | median Resistance Index (RI) relative to NL43 [2]: ~1.22; resistance level (in words) ([2]; sample R3): high resistance level |
| Cc1cn([C@H]2C[C@H](N=[N+]=[N-])[C@@H](CO)O2)c(=O)[nH]c1=O [AZT, ziodvudine] | – | – | – | – | – | toxicity for the P4 cells [3]: > 300 μm |
| O=C1Nc2ccc(Cl)cc2[C@@](C#CC2CC2)(C(F)(F)F)O1 [Efavirenz] | 1.0 | 74.9 | 1.0 | 149.8 | > | resistance levels (in words) [2]: high resistance levels |
| Cc1cn([C@H]2C=C[C@@H](CO)O2)c(=O)[nH]c1=O [D4T, stavudine] | – | – | – | – | – | median Resistance Index (RI) relative to NL43 [2]: around 0.92 |
| O=c1[nH]cnc2c1ncn2[C@H]1CC[C@@H](CO)O1 [DDI] | 1.4 | 26.9 | 3.1 | 3.0 | 2.6 | – |
